# Laboratory results reported in patent US11254652B2, “Crystalline forms of N-(4-(4-(cyclopropymethyl)piperazine-1-carbonyl)phenyl)quinoline-8-sulfonamide” (Agios Pharmaceuticals, Inc., priority 2017, dated 2022).
# Where two headings read alike, the source gives them in different places.
# Test: Solubility measurements by gravimetric method in solvents at 23° C. and 50° C.
# Type: physicochemical
# Details: for solubility at 2 days: thermodynamic from solid
# Method: Solubility measurements were done by gravimetric method in 20 different solvents at two temperatures (23° C. and 50° C.). About 20-30 mg of Form A, the synthesis of which is described below, was weighed and 0.75 mL solvent was added to form a slurry. The slurry was then stirred for two days at the specified temperature. The vial was centrifuged and the supernatant was collected for solubility measurement through gravimetric method. The saturated supernatant was transferred into pre-weighed 2 mL HPLC vials and weighed again (vial+liquid). The uncapped vial was then left on a 50° C. hot plate to slowly evaporate the solvent overnight. The vials were then left in the oven at 50° C. and under vacuum to remove the residual solvent so that only the dissolved solid remained. The vial was then weighed (vial+solid). From these three weights; vial, vial+liquid and vial+solid; the weight of dissolved solid and the solvent were calculated. Then using solvent density the solubility was calculated as mg solid/mL of solvent.
# 20-30 mg of Form A was weighed into 2 mL vial and 500 μL MeOH solvent system as outlined in the table was added. If dissolved, more solids were added to form the slurry. The slurries were then stirred for two days. The vials were centrifuged and the supernatant was collected for solubility measurement through gravimetric method by evaporation at 50° C. XRPD analysis was conducted on the solid after filtration of the slurries.
# For the sake of comparison, the solubility of Compound 1, i.e., the non-crystalline freebase, was also measured in two solvent systems to see the effect of water.
structure (smiles),measurement,setting,value
"O=C(c1ccc(NS(=O)(=O)c2cccc3cccnc23)cc1)N1CCN(CC2CC2)CC1 [Form A, 1-(cyclopropylmethyl)-4-(4-(quinoline-8-sulfonamido)benzoyl)piperazin-1-ium hemisulfate sesquihydrate]",solubility at 2 days,"DCM, 23 °C, organic solvent or mixture, DCM, 23° C., read-out: Solubility",2000 µg/mL
same,Solubility,"EtOAc, 23° C.",0 mg solid/mL solvent
same,solubility at 2 days,"EtOAc, 50 °C, organic solvent or mixture, EtOAc, 50° C., read-out: Solubility",2000 µg/mL
same,solubility at 2 days,"EtOAc:MeOH (1:1) and 5 vol % water, 23 °C, organic solvent or mixture, EtOAc:MeOH (1:1) and 5 vol % water, 23° C., read-out: Solubility",3000 µg/mL
same,solubility at 2 days,"EtOAc:MeOH (1:1) and 5 vol % water, 50 °C, organic solvent or mixture, EtOAc:MeOH (1:1) and 5 vol % water, 50° C., read-out: Solubility",12000 µg/mL
same,solubility at 2 days,"EtOAc:MeOH (1:1), 23 °C, organic solvent or mixture, EtOAc:MeOH (1:1), 23° C., read-out: Solubility",21000 µg/mL
same,solubility at 2 days,"EtOAc:MeOH (1:1), 50 °C, organic solvent or mixture, EtOAc:MeOH (1:1), 50° C., read-out: Solubility",240000 µg/mL
same,solubility at 2 days,"EtOAc:MeOH (1:9), 23 °C, organic solvent or mixture, EtOAc:MeOH (1:9), 23° C., read-out: Solubility",359000 µg/mL
same,solubility at 2 days,"EtOAc:MeOH (1:9), 50 °C, organic solvent or mixture, EtOAc:MeOH (1:9), 50° C., read-out: Solubility",531000 µg/mL
same,Solubility,"EtOAc:MeOH (9:1), 23° C.",0 mg solid/mL solvent
same,solubility at 2 days,"EtOAc:MeOH (9:1), 50 °C, organic solvent or mixture, EtOAc:MeOH (9:1), 50° C., read-out: Solubility",9000 µg/mL
same,Solubility,"EtOH, 23° C.",0 mg solid/mL solvent
same,solubility at 2 days,"EtOH, 50 °C, organic solvent or mixture, EtOH, 50° C., read-out: Solubility",1000 µg/mL
same,solubility at 2 days,"EtOH:MeOH (1:1), 23 °C, organic solvent or mixture, EtOH:MeOH (1:1), 23° C., read-out: Solubility",2000 µg/mL
same,solubility at 2 days,"EtOH:MeOH (1:1), 50 °C, organic solvent or mixture, EtOH:MeOH (1:1), 50° C., read-out: Solubility",11000 µg/mL
same,Solubility,"IPA, 23° C.",0 mg solid/mL solvent
same,solubility at 2 days,"IPA, 50 °C, organic solvent or mixture, IPA, 50° C., read-out: Solubility",2000 µg/mL
same,solubility at 2 days,"IPA:DMSO (8:2), 23 °C, organic solvent or mixture, IPA:DMSO (8:2), 23° C., read-out: Solubility",11000 µg/mL
same,solubility at 2 days,"IPA:DMSO (8:2), 50 °C, organic solvent or mixture, IPA:DMSO (8:2), 50° C., read-out: Solubility",28000 µg/mL
same,solubility at 2 days,"IPA:DMSO:water (70:20:10), 23 °C, organic solvent or mixture, IPA:DMSO:water (70:20:10), 23° C., read-out: Solubility",1000 µg/mL
same,solubility at 2 days,"IPA:DMSO:water (70:20:10), 50 °C, organic solvent or mixture, IPA:DMSO:water (70:20:10), 50° C., read-out: Solubility",8000 µg/mL
same,solubility at 2 days,"IPA:DMSO:water (70:25:5), 23 °C, organic solvent or mixture, IPA:DMSO:water (70:25:5), 23° C., read-out: Solubility",2000 µg/mL
same,solubility at 2 days,"IPA:DMSO:water (70:25:5), 50 °C, organic solvent or mixture, IPA:DMSO:water (70:25:5), 50° C., read-out: Solubility",9000 µg/mL
same,solubility at 2 days,"IPA:DMSO:water (80:18:2), 23 °C, organic solvent or mixture, IPA:DMSO:water (80:18:2), 23° C., read-out: Solubility",1000 µg/mL
same,solubility at 2 days,"IPA:DMSO:water (80:18:2), 50 °C, organic solvent or mixture, IPA:DMSO:water (80:18:2), 50° C., read-out: Solubility",6000 µg/mL
same,Solubility,"IPAc, 23° C.",0 mg solid/mL solvent
same,solubility at 2 days,"IPAc, 50 °C, organic solvent or mixture, IPAc, 50° C., read-out: Solubility",1000 µg/mL
same,Solubility,"MEK:water (20:1), 23° C.",0 mg solid/mL solvent
same,solubility at 2 days,"MEK:water (20:1), 50 °C, organic solvent or mixture, MEK:water (20:1), 50° C., read-out: Solubility",2000 µg/mL
same,solubility at 2 days,"MeOAc:MeOH (1:1) and 1 vol % water, 23 °C, organic solvent or mixture, MeOAc:MeOH (1:1) and 1 vol % water, 23° C., read-out: Solubility",118000 µg/mL
same,solubility at 2 days,"MeOAc:MeOH (1:1) and 1 vol % water, 50 °C, organic solvent or mixture, MeOAc:MeOH (1:1) and 1 vol % water, 50° C., read-out: Solubility",236000 µg/mL
same,solubility at 2 days,"MeOAc:MeOH (1:1) and 2.5 vol % water, 23 °C, organic solvent or mixture, MeOAc:MeOH (1:1) and 2.5 vol % water, 23° C., read-out: Solubility",39000 µg/mL
same,solubility at 2 days,"MeOAc:MeOH (1:1) and 2.5 vol % water, 50 °C, organic solvent or mixture, MeOAc:MeOH (1:1) and 2.5 vol % water, 50° C., read-out: Solubility",143000 µg/mL
same,solubility at 2 days,"MeOAc:MeOH (1:1) and 5 vol % water, 23 °C, organic solvent or mixture, MeOAc:MeOH (1:1) and 5 vol % water, 23° C., read-out: Solubility",5000 µg/mL
same,solubility at 2 days,"MeOAc:MeOH (1:1) and 5 vol % water, 50 °C, organic solvent or mixture, MeOAc:MeOH (1:1) and 5 vol % water, 50° C., read-out: Solubility",26000 µg/mL
same,solubility at 2 days,"MeOAc:MeOH (1:1), 23 °C, organic solvent or mixture, MeOAc:MeOH (1:1), 23° C., read-out: Solubility",208000 µg/mL
same,solubility at 2 days,"MeOAc:MeOH (1:1), 50 °C, organic solvent or mixture, MeOAc:MeOH (1:1), 50° C., read-out: Solubility",340000 µg/mL
same,solubility at 2 days,"MeOH, 23 °C, organic solvent or mixture, MeOH, 23° C., 2 days slurry, read-out: Solubility",393000 µg/mL
same,solubility at 2 days,"MeOH, 50 °C, organic solvent or mixture, MeOH, 50° C., 2 days slurry, read-out: Solubility",> 765000 µg/mL
same,solubility at 2 days,"MeOH:Water (1:1), 23 °C, aqueous with cosolvent or surfactant or cyclodextrin, MeOH:Water (1:1), 23° C., read-out: Solubility",7000 µg/mL
same,solubility at 2 days,"MeOH:Water (1:1), 50 °C, aqueous with cosolvent or surfactant or cyclodextrin, MeOH:Water (1:1), 50° C., read-out: Solubility",27000 µg/mL
same,solubility at 2 days,"MeOH:water (1:1) system as printed, 0 vol % water, organic solvent or mixture, MeOH:water (1:1) system as printed, 0 vol % water, read-out: room temperature solubility",208000 µg/mL
same,solubility at 2 days,"MeOH:water (1:1) system as printed, 1% water, organic solvent or mixture, MeOH:water (1:1) system as printed, 1% water, read-out: room temperature solubility",118000 µg/mL
same,solubility at 2 days,"MeOH:water (1:1) system as printed, 2.5% water, organic solvent or mixture, MeOH:water (1:1) system as printed, 2.5% water, read-out: room temperature solubility",39000 µg/mL
same,solubility at 2 days,"MeOH:water (1:1) system as printed, 5% water, organic solvent or mixture, MeOH:water (1:1) system as printed, 5% water, read-out: room temperature solubility",5000 µg/mL
same,solubility at 2 days,"MeOH:water (8:2), 23 °C, organic solvent or mixture, MeOH:water (8:2), 23° C., read-out: Solubility",10000 µg/mL
same,solubility at 2 days,"MeOH:water (8:2), 50 °C, organic solvent or mixture, MeOH:water (8:2), 50° C., read-out: Solubility",59000 µg/mL
same,solubility at 2 days,"MtBE, 23 °C, organic solvent or mixture, MtBE, 23° C., read-out: Solubility",1000 µg/mL
same,solubility at 2 days,"MtBE, 50 °C, organic solvent or mixture, MtBE, 50° C., read-out: Solubility",3000 µg/mL
same,solubility at 2 days,"THF, 23 °C, organic solvent or mixture, THF, 23° C., read-out: Solubility",2000 µg/mL
same,solubility at 2 days,"THF, 50 °C, organic solvent or mixture, THF, 50° C., read-out: Solubility",26000 µg/mL
same,solubility at 2 days,"THF:water (8:2), 23 °C, organic solvent or mixture, THF:water (8:2), 23° C., read-out: Solubility",14000 µg/mL
same,solubility at 2 days,"THF:water (8:2), 50 °C, organic solvent or mixture, THF:water (8:2), 50° C., read-out: Solubility",77000 µg/mL
same,Solubility,"Toluene, 23° C.",0 mg solid/mL solvent
same,solubility at 2 days,"Toluene:EtOH:water (10:5:0.5), 23 °C, organic solvent or mixture, Toluene:EtOH:water (10:5:0.5), 23° C., read-out: Solubility",1000 µg/mL
same,solubility at 2 days,"Toluene:EtOH:water (10:5:0.5), 50 °C, organic solvent or mixture, Toluene:EtOH:water (10:5:0.5), 50° C., read-out: Solubility",4000 µg/mL
same,solubility at 2 days,"acetone, 23 °C, organic solvent or mixture, Acetone, 23° C., read-out: Solubility",1000 µg/mL
same,solubility at 2 days,"acetone, 50 °C, organic solvent or mixture, Acetone, 50° C., read-out: Solubility",6000 µg/mL
same,solubility at 2 days,"acetone:water (8:2), 23 °C, organic solvent or mixture, acetone:water (8:2), 23° C., read-out: Solubility",5000 µg/mL
same,solubility at 2 days,"acetone:water (8:2), 50 °C, organic solvent or mixture, acetone:water (8:2), 50° C., read-out: Solubility",16000 µg/mL
same,solubility at 2 days,"acetonitrile, 23 °C, organic solvent or mixture, Acetonitrile, 23° C., read-out: Solubility",4000 µg/mL
same,solubility at 2 days,"acetonitrile, 50 °C, organic solvent or mixture, Acetonitrile, 50° C., read-out: Solubility",6000 µg/mL
same,solubility at 2 days,"cyclohexane, 23 °C, organic solvent or mixture, Cyclohexane, 23° C., read-out: Solubility",1000 µg/mL
same,solubility at 2 days,"cyclohexane, 50 °C, organic solvent or mixture, Cyclohexane, 50° C., read-out: Solubility",1000 µg/mL
same,decrease of solubility on adding 5 vol % water,"room temperature, 0 vs 5 vol % water",42 fold
same,solubility at 2 days,"toluene, 50 °C, organic solvent or mixture, Toluene, 50° C., read-out: Solubility",2000 µg/mL
